Measurements from patent publication US10813880B2, “Isotretinoin oral-mucosal formulations and methods for using same” (Skyline Biosciences LLC, priority 2017, dated 2020).

Key:
[1] = test system: Human oral mucosa 3D models (composed of human gingival keratinocytes); assay: Irritation testing in 3D cultured oral epithelial cells (MTT); assay type: cell-based; details: 4 hr
Description: Human oral mucosa 3D models (composed of human gingival keratinocytes) were exposed topically to CCP-042 oral adhesive film (0.1%, 0.2%, and 0.3%) for 4 hr before viability assessment. Cell viability was measured by MTT assay on tissues, in triplicate. 1% Triton X-100 was used as positive control. The reduction of the viability of tissues exposed to formulations as compared to that of PBS-treated negative controls were used to predict the skin irritation potential using European Union (EU) and Globally Harmonized System (GHS) classifications, which define an irritant as a substance that reduces the viability of the exposed tissue to less than 50% of the viability of untreated controls.

[2] = test system: Human gingival keratinocytes; assay: Cytotoxicity in 2D cultured oral epithelial cells (Cell Titer96 Aqueous One); assay type: cell-based; details: seven concentrations 0.3 to 0.00003%, 24 h
Description: Human gingival keratinocytes derived from a single donor were cultured at 37° C. with 5% CO2, and 95% humidity in a 96-well plate for cytotoxicity evaluation. Cells were incubated in the presence of seven concentrations of isotretinoin ranging from 0.3 to 0.00003% for 24 h in triplicate. Untreated cells were used as baseline control. Cytotoxicity was evaluated using the Cell Titer96 Aqueous One (Promega, WI, USA) basic test according to manufacturer's instructions using an absorbance of 490 nm for the final colorimetric readings.

## CC1=C(/C=C/C(C)=C/C=C/C(C)=C\C(=O)O)C(C)(C)CCC1 [isotretinoin, (2Z,4E,6E,8E)-3,7-dimethyl-9-(2,6,6-trimethylcyclohex-1-en-1-yl)nona-2,4,6,8-tetraenoic acid]
[1]; concentration 0.1%
  toxicity to 3D tissue: not toxic
[1]; concentration 0.2%
  toxicity to 3D tissue: not toxic
[2]
  cytotoxicity (inhibition of viability of more than 20% of control): toxic
